Laboratory results reported in ChEMBL document CHEMBL4888484, “Replenishing the malaria drug discovery pipeline: Screening and hit evaluation of the MMV Hit Generation Library 1 (HGL1) against asexual blood stage Plasmodium falciparum ,using a nano luciferase reporter read-out” (2022).

Key:
[1] = tested on: Plasmodium falciparum; experiment: Hit confirmation in dose-response curve in NF54 nanoGlo assay, at 72h; type: functional, organism-based, Erythrocyte; design: timepoint 72 hour; conditions: Plasmodium falciparum, NF54, Erythrocyte, 72 h
[2] = tested on: Plasmodium falciparum; experiment: Hit confirmation in dose-response curve in NF54 pLDH assay, at 72h; type: functional, organism-based; design: timepoint 72 hour; conditions: NF54, Erythrocyte
[3] = tested on: Plasmodium falciparum; experiment: Hit confirmation in dose-response curve in Dd2 pLDH assay, at 72h; type: functional, organism-based; design: timepoint 72 hour; conditions: Dd2, Erythrocyte
[4] = Hit confirmation in dose-response curve in HepG2 cytotoxicity assay, at 72h; type: toxicity, cell-based; design: timepoint 72 hour; conditions: human, HepG2 cells
[5] = tested on: Plasmodium falciparum; experiment: Hit confirmation in dose-response curve in NF54 nanoGlo assay, at 12h; type: functional, organism-based, Erythrocyte; design: timepoint 12 hour; conditions: Plasmodium falciparum, NF54, Erythrocyte, 12 h

SMILES	IC50 [1] [nM]	IC50 [2] [nM]	IC50 [3] [nM]	IC50 at 72 h [4] [nM]	IC50 [5] [nM]
CCOc1ccc(C2c3[nH]c4ccccc4c3C[C@H]3C(=O)N(C4CCN(Cc5ccccc5)CC4)CC(=O)N23)cc1OC (some centres not stated)	1150	5130	2750	> 10000	2690
CCOC(=O)CCn1cc(F)c(=O)[nH]c1=O	26.9	70.8	> 10000	> 10000	> 10000
CCOc1cc(CNc2cccc3ccccc23)cc(Br)c1OCC(=O)NC(C)(C)C	> 10000	> 10000	> 10000	> 10000	> 10000
COc1ccc(-[n+]2c(-c3ccccc3)cn3c2CCC3)cc1	794	1410	776	> 10000	> 10000
COc1ccc(C(=O)C[n+]2cc(-c3ccc(OC)cc3)n3c2CCCC3)cc1	1410	2340	1480	> 10000	> 10000
COc1ccc(-c2c[n+](-c3ccc(Cl)cc3)c3n2CCCCC3)cc1	1380	2240	1000	> 10000	> 10000
CC[n+]1c(/C=C/N(C)c2ccccc2)oc2ccccc21	724	741	661	> 10000	> 10000
COc1ccc(C(=O)C[n+]2nc(CNc3ccc(Br)cc3)n3c2CCCCC3)cc1	537	759	646	> 10000	9550
NC(=O)C1CCN(CCC(=O)N2CCc3cc4ccc3[C@@H]2c2cccc(c2)OCCCNC(=O)c2cc(ccc2O)O4)CC1				> 10000	3160
CC[N+](C)(CC)CCOc1cc(C)c2ccccc2n1	2240	4680	2690	> 10000	> 10000
COc1ccc(C(=O)Nc2ccc3c(c2)C(=O)Nc2cccnc2O3)cc1OC	3160	> 10000	> 10000	> 10000	11000
CC(=O)c1cccc(NC(=O)[C@@]23CCC(=O)N2c2ccccc2C(=O)N3C)c1	1910	5890	2820	> 10000	3090
C[C@H]1CCC[C@@H](NCCc2ccccc2)CCC/C=C/c2cc(O)cc(O)c2C(=O)O1	759	2950	2290	> 10000	8510
COc1ccc(-[n+]2c(-c3ccc(-c4ccccc4)cc3)cn3c2COCC3)cc1	2140	2400	2090	> 10000	> 10000
O=c1[nH]c(=O)n(S(=O)(=O)c2ccccc2)cc1F	2.75	3.47	> 10000	> 10000	2040
CN(C)CC(O)COc1ccc(S(=O)(=O)c2ccc(OCC(O)CN(C)C)c(Cl)c2)cc1Cl (configuration not stated)	1510	2450	1380	> 10000	3980
COC[C@H](NCCc1cc(F)cc2c1OCOC2)C1CC1	661	891	> 10000	> 10000	> 10000
CC1([C@@](O)(C#CC[N+]2(C)CCCCC2)c2ccccc2)CCCC1	2190	1410	1260	> 10000	> 10000
c1ccc(-c2nc(C[n+]3ccc4c(c3)CCCC4)cs2)cc1	1200	89.1	832	> 10000	> 10000
COc1ccc(CCNc2oc(-c3cccnc3)nc2C#N)cc1OC	3980	> 10000	> 10000	> 10000	2400
Nc1nc2c(s1)CN(CCc1ccccc1)CC2	3980	6920	5620	> 10000	> 10000
CC(C)[C@@H]1CC[C@H](C)C[C@H]1OC(=O)Cn1cc(-c2ccc(Cl)cc2)[n+]2c1CCC2	955	2340	1200	> 10000	5010
COc1ccccc1C1c2[nH]c3ccccc3c2C[C@H]2C(=O)N(CC(O)c3ccccc3)CC(=O)N12 (some centres not stated)	3160	8910	> 10000	> 10000	4470
C[C@@H](CNc1nc(-c2ccccc2)nc2nc(-c3ccc(Cl)cc3)oc12)N1CCCCC1	3390	7590	5890	> 10000	9550
Cc1ccc2nc(-c3cc4ccccc4o3)cn2c1	2040	3020	2690	> 10000	> 10000
